Assay [1] relates to Candida albicans. Put plainly: Synergistic antifungal activity against Candida albicans ATCC 10231 assessed as fluconazole MIC measured after 48 hrs by checkboard based microplate reader analysis. The assay is classed as functional.
The test system of assay [2] is Candida albicans. Put plainly: Synergistic antifungal activity against Candida albicans ATCC 64124 assessed as fluconazole MIC measured after 48 hrs by checkboard based microplate reader analysis. The assay is classed as functional.
Assay [3] has as its system Candida albicans. Put plainly: Antifungal activity against Candida albicans ATCC 10231 measured after 48 hrs by broth microdilution analysis. The format is functional.
Assay [4] relates to Candida albicans. Put plainly: Antifungal activity against Candida albicans ATCC 64124 measured after 48 hrs by broth microdilution analysis. The assay is classed as functional.
Assay [5] concerns Candida albicans. Put plainly: Additive antifungal activity against Candida albicans ATCC 90819 assessed as fractional inhibitory concentration index measured for 72 hrs in presence of voriconazole. The format is functional.
The subject of assay [6] is Candida albicans. Put plainly: Synergistic antifungal activity against Candida albicans ATCC 64124 assessed as compound MIC measured after 48 hrs in presence of voriconazole by checkboard based microplate reader analysis. The format is functional.
The test system of assay [7] is Candida albicans. Nature of the assay: Synergistic antifungal activity against Candida albicans ATCC 64124 assessed as compound MIC measured after 48 hrs in presence of itraconazole by checkboard based microplate reader analysis. The assay is classed as functional.
Assay [8] relates to Candida albicans. Put plainly: Additive antifungal activity against Candida albicans ATCC MYA-2876 assessed as fractional inhibitory concentration index measured for 72 hrs in presence of voriconazole. The format is functional.
Assay [9] relates to Aspergillus terreus. Nature of the assay: Additive antifungal activity against Aspergillus terreus ATCC MYA-3633 assessed as fractional inhibitory concentration index measured for 72 hrs in presence of voriconazole. The assay is classed as functional.
Assay [10] deals with Candida albicans. Nature of the assay: Partial synergistic antifungal activity against Candida albicans ATCC 10231 assessed as fractional inhibitory concentration index measured for 72 hrs in presence of ketoconazole. The assay is classed as functional.
Assay [11] relates to Candida albicans. Put plainly: Antifungal activity against Candida albicans ATCC MYA-2876 measured after 48 hrs by broth microdilution analysis. The assay is classed as functional.
The test system of assay [12] is Candida albicans. Put plainly: Additive antifungal activity against Candida albicans ATCC 10231 assessed as fractional inhibitory concentration index measured for 72 hrs in presence of fluconazole. The assay is classed as functional.
Assay [13] has as its system Candida albicans. Put plainly: Partial synergistic antifungal activity against Candida albicans ATCC 64124 assessed as fractional inhibitory concentration index measured for 72 hrs in presence of ketoconazole. The assay is classed as functional.
Assay [14] deals with Candida albicans. Put plainly: Synergistic antifungal activity against Candida albicans ATCC 10231 assessed as compound MIC measured after 48 hrs in presence of ketoconazole by checkboard based microplate reader analysis. The format is functional.
Assay [15] deals with Candida albicans. Nature of the assay: Synergistic antifungal activity against Candida albicans ATCC 64124 assessed as compound MIC measured after 48 hrs in presence of fluconazole by checkboard based microplate reader analysis. The assay is classed as functional.
Assay [16] relates to Candida albicans. Put plainly: Additive antifungal activity against Candida albicans ATCC 64124 assessed as fractional inhibitory concentration index measured for 72 hrs in presence of fluconazole. The format is functional.
Assay [17] concerns Nakaseomyces glabratus. Put plainly: Additive antifungal activity against Candida glabrata ATCC 2001 assessed as fractional inhibitory concentration index measured for 72 hrs in presence of voriconazole. The assay is classed as functional.
Assay [18] relates to Candida albicans. Put plainly: Antifungal activity against Candida albicans ATCC MYA-1237 measured after 48 hrs by broth microdilution analysis. The assay is classed as functional.
Assay [19] relates to Candida albicans. Nature of the assay: Additive antifungal activity against Candida albicans ATCC 64124 assessed as fractional inhibitory concentration index measured for 72 hrs in presence of itraconazole. The format is functional.
Assay [20] concerns Candida albicans. Put plainly: Synergistic antifungal activity against Candida albicans ATCC 64124 assessed as compound MIC measured after 48 hrs in presence of posaconazole by checkboard based microplate reader analysis. The assay is classed as functional.
Assay [21] concerns Aspergillus terreus. Put plainly: Antifungal activity against Aspergillus terreus ATCC MYA-3633 measured after 48 hrs by broth microdilution analysis. The format is functional.
Assay [22] deals with Candida albicans. Put plainly: Additive antifungal activity against Candida albicans ATCC MYA-2876 assessed as fractional inhibitory concentration index measured for 72 hrs in presence of posaconazole. The assay is classed as functional.
Assay [23] deals with Candida albicans. Put plainly: Additive antifungal activity against Candida albicans ATCC MYA-1237 assessed as fractional inhibitory concentration index measured for 72 hrs in presence of posaconazole. The format is functional.
Assay [24] concerns Candida albicans. Nature of the assay: Additive antifungal activity against Candida albicans ATCC MYA-2310 assessed as fractional inhibitory concentration index measured for 72 hrs in presence of posaconazole. The format is functional.
Assay [25] relates to Candida albicans. Put plainly: Additive antifungal activity against Candida albicans ATCC MYA-2310 assessed as fractional inhibitory concentration index measured for 72 hrs in presence of voriconazole. The assay is classed as functional.
The test system of assay [26] is Candida albicans. Put plainly: Additive antifungal activity against Candida albicans ATCC 10231 assessed as fractional inhibitory concentration index measured for 72 hrs in presence of itraconazole. The assay is classed as functional.
Assay [27] has as its system Candida albicans. Put plainly: Synergistic antifungal activity against Candida albicans ATCC 64124 assessed as compound MIC measured after 48 hrs in presence of ketoconazole by checkboard based microplate reader analysis. The assay is classed as functional.
Assay [28] has as its system Candida albicans. Put plainly: Additive antifungal activity against Candida albicans ATCC MYA-1237 assessed as fractional inhibitory concentration index measured for 72 hrs in presence of voriconazole. The assay is classed as functional.
In assay [29] the test system is Candida albicans. Put plainly: Synergistic antifungal activity against Candida albicans ATCC 10231 assessed as compound MIC measured after 48 hrs in presence of voriconazole by checkboard based microplate reader analysis. The format is functional.
For assay [30], the system named is Nakaseomyces glabratus. Nature of the assay: Additive antifungal activity against Candida glabrata ATCC 2001 assessed as fractional inhibitory concentration index measured for 72 hrs in presence of posaconazole. The format is functional.
For assay [31], the system named is Candida albicans. Put plainly: Partial synergistic antifungal activity against Candida albicans ATCC 64124 assessed as fractional inhibitory concentration index measured for 72 hrs in presence of voriconazole. The format is functional.
Assay [32] has as its system Candida albicans. Put plainly: Additive antifungal activity against Candida albicans MYA-1003 assessed as fractional inhibitory concentration index measured for 72 hrs in presence of voriconazole.
Assay [33] deals with Candida albicans. Put plainly: Synergistic antifungal activity against Candida albicans ATCC 10231 assessed as compound MIC measured after 48 hrs in presence of posaconazole by checkboard based microplate reader analysis. The assay is classed as functional.
Assay [34] relates to Nakaseomyces glabratus. Put plainly: Synergistic antifungal activity against Candida glabrata ATCC 2001 assessed as fractional inhibitory concentration index measured for 72 hrs in presence of posaconazole. The assay is classed as functional.
In assay [35] the test system is Candida albicans. Nature of the assay: Antifungal activity against Candida albicans ATCC MYA-1003 measured after 48 hrs by broth microdilution analysis. The assay is classed as functional.
Assay [36] relates to Candida albicans. Put plainly: Antifungal activity against Candida albicans ATCC MYA-2310 measured after 48 hrs by broth microdilution analysis. The assay is classed as functional.
Assay [37] concerns Candida albicans. Nature of the assay: Synergistic antifungal activity against Candida albicans ATCC 10231 assessed as compound MIC measured after 48 hrs in presence of fluconazole by checkboard based microplate reader analysis. The assay is classed as functional.
In assay [38] the test system is Candida albicans. Nature of the assay: Antifungal activity against Candida albicans ATCC 90819 measured after 48 hrs by broth microdilution analysis. The format is functional.
Assay [39] deals with Nakaseomyces glabratus. Nature of the assay: Antifungal activity against Candida glabrata ATCC 2001 measured after 48 hrs by broth microdilution analysis. The assay is classed as functional.
Assay [40] has as its system Candida albicans. Put plainly: Synergistic antifungal activity against Candida albicans ATCC 10231 assessed as compound MIC measured after 48 hrs in presence of itraconazole by checkboard based microplate reader analysis. The assay is classed as functional.
Assay [41] concerns Candida albicans. Put plainly: Additive antifungal activity against Candida albicans ATCC 90819 assessed as fractional inhibitory concentration index measured for 72 hrs in presence of posaconazole. The format is functional.
The test system of assay [42] is Candida albicans. Nature of the assay: Synergistic antifungal activity against Candida albicans ATCC 64124 assessed as itraconazole MIC measured after 48 hrs by checkboard based microplate reader analysis. The assay is classed as functional.
The subject of assay [43] is Candida albicans. Put plainly: Synergistic antifungal activity against Candida albicans ATCC 10231 assessed as itraconazole MIC measured after 48 hrs by checkboard based microplate reader analysis. The assay is classed as functional.

≈ marks a conversion by molar mass, not a printed value. Where only a bound is given, the exact number is not on record here.

For the compound `OC(Cn1cncn1)(Cn1cncn1)c1ccc(F)cc1F` [FLUCONAZOLE], the minimal inhibitory concentration (MIC) in the assay on Candida albicans [1], in the assay on Candida albicans [2], in the assay on Candida albicans [3] and in the assay with Candida albicans [4] was greater than 32 µg/mL each time.
For the compound `O=C(CCCN1CCC(O)(c2ccc(Br)cc2)CC1)c1ccc(Br)cc1`, the “fractional inhibitory concentration index (FICI)” value is 2 in the assay on Candida albicans [5]; 2 in the assay on Candida albicans [8]; 2 in the assay with Aspergillus terreus [9]; 0.52 in the assay on Candida albicans [10]; 2 with Candida albicans [12]; 0.52 in the assay with Candida albicans [13]. Besides, the “fractional inhibitory concentration index (FICI)” value in the assay with Candida albicans [16], in the assay with Nakaseomyces glabratus [17], with Candida albicans [19], with Candida albicans [22], in the assay with Candida albicans [23] and in the assay with Candida albicans [24] was 2 in each case. The “fractional inhibitory concentration index (FICI)” value in the assay with Candida albicans [25] came to 2; in the assay on Candida albicans [26], 1.5; with Candida albicans [28], 2; in the assay with Nakaseomyces glabratus [30] it was 0.38; in the assay with Candida albicans [31] it was 0.63; in the assay with Candida albicans [32], 2. The fractional inhibitory concentration index (FICI) in the assay on Nakaseomyces glabratus [34] stood at 0.38; in the assay on Candida albicans [41] it was 2. Besides, the MIC with Candida albicans [6] was 32 µg/mL; with Candida albicans [7], greater than 64 µg/mL; against Candida albicans [11] it was greater than 64 µg/mL; in the assay on Candida albicans [1] it was greater than 32 µg/mL; in the assay with Candida albicans [14], 1 µg/mL; in the assay with Candida albicans [15], greater than 64 µg/mL. Moreover, the MIC against Candida albicans [18] was greater than 64 µg/mL; with Candida albicans [20] it was 16 µg/mL; against Aspergillus terreus [21], greater than 64 µg/mL; with Candida albicans [27], 1 µg/mL; with Candida albicans [29] it was 32 µg/mL; against Candida albicans [3], greater than 64 µg/mL. The minimal inhibitory concentration (MIC) is 32 µg/mL in the assay on Candida albicans [33]; greater than 64 µg/mL in the assay on Candida albicans [4]; greater than 64 µg/mL with Candida albicans [35]; greater than 64 µg/mL in the assay on Candida albicans [36]; greater than 64 µg/mL in the assay on Candida albicans [37]; greater than 64 µg/mL in the assay on Candida albicans [38]. Moreover, the results for the MIC in the assay with Nakaseomyces glabratus [39] and in the assay on Candida albicans [40] were greater than 64 µg/mL and 64 µg/mL, respectively.
For `CCC(C)n1ncn(-c2ccc(N3CCN(c4ccc(OCC5COC(Cn6cncn6)(c6ccc(Cl)cc6Cl)O5)cc4)CC3)cc2)c1=O` (stereo not drawn) [ITRACONAZOLE], the minimal inhibitory concentration (MIC) in the assay on Candida albicans [42] was greater than 32 µg/mL; with Candida albicans [43], 0.25 µg/mL; against Candida albicans [3], 1 µg/mL (≈ 1.42 µM); against Candida albicans [4] it was greater than 32 µg/mL.

(Values after ChEMBL document CHEMBL5252541, “Repurposing antipsychotic drugs into antifungal agents: Synergistic combinations of azoles and bromperidol derivatives in the treatment of various fungal infections” (Eur J Med Chem, 2017).)
